Test results reported in article PMC7793975, “Design and Optimization of Quinazoline Derivatives: New Non-nucleoside Inhibitors of Bovine Viral Diarrhea Virus” (Frontiers in Chemistry, 2020).
Like-named read-outs stand apart in the source and are kept apart here.

Columns and labels:
[1] = system: BVDV type 1 NADL strain; test: Anti-BVDV assay (CPE reduction, MTS/PMS); type: cell-based, Bovine viral diarrhea virus; details: for EC50: BVDV NADL in MDBK cells, MOI 0.01, 3 days, reduces viral CPE by 50%, Inactive: <50% of inhibition of CPE at MNCC; for SI (CC50/EC50): in vitro selectivity index, MDBK cells / BVDV NADL
Method: (A) Cytotoxicity. […] Mock-treated cells were added as control. […] (B) Antiviral activity.
Madin-Darby bovine kidney cells (MDBK NBL-1; ATCC CCL-22) were grown in Eagle's Minimum Essential Medium (E-MEM), supplemented with 10% biotechnological fetal bovine serum (Internegocios, Argentina) (GM) at 37°C and 5% CO2. The BVDV type 1 NADL strain, cytopathic biotype (BVDV-1, ATCC VR 534), was provided by Dr. Laura Weber (INTA Castelar, Argentina).
Then, serial dilutions of the test compounds in IM were added. […] After incubation for 3 days at 37°C and 5% CO2, the culture medium was removed, cell monolayers were washed twice with PBS, and IM supplemented with MTS/PMS was added to each well. The absorbance of each well was read at 490 nm. The EC50 was defined as the concentration of compound that prevented 50% of the virus-induced CPE and was calculated by interpolation in dose–response curves.

[2] = Cytotoxicity assay (MTS/PMS); details: bovine
Method: (§1) (A) Cytotoxicity. Sub-confluent MDBK cell monolayers grown in 96-well plates were treated with 2-fold serial dilutions of each compound in IM. Mock-treated cells were added as control. Cells were incubated and allowed to proliferate for 3 days at 37°C and 5% CO2. Cell viability was then determined by the MTS/PMS method. (B) Antiviral activity. Sub-confluent MDBK cell monolayers grown in 96-well plates were infected with BVDV NADL (MOI = 0.01) and treated with different concentrations of the compounds. Mock-infected cells and mock-treated infected cells were included as controls in each plate. After 3 days at 37°C and 5% CO2, cell viability was determined by the MTS/PMS method, and the percentage of the viral CPE inhibition was calculated.
(§2) MDBK cells were seeded in 96-well plates at a density of 1 × 10^4 cells per well in GM. After 24 h, the culture medium was removed, monolayers were washed twice with phosphate-buffered saline (PBS), and serial dilutions of the test compounds were made in E-MEM supplemented with donor horse serum (DHS, Gibco, IM) and added. Cultures were incubated for 3 days at 37°C, and then, cell viability was determined by the MTS/PMS method according to the manufacturer's instructions (Promega). After incubation for 3 h at 37°C and 5% CO2, the absorbance was determined at 490 nm. The 50% cytotoxic concentration (CC50) was defined as the concentration of compound that inhibited the proliferation of exponentially growing cells by 50% and was calculated by interpolation in dose–response curves.

[3] = system: MDBK cells; test: Cytotoxicity assay (MTS/PMS); details: MDBK cells, 3 days
Method: as §1, §2

[4] = Bovine viral diarrhea virus isolates and strains, MDBK, 72 h, read-out: EC50

In the case of c1ccc(-c2nc(NCCN3CCOCC3)c3ccccc3n2)cc1 [Compound 1, N-(2-morpholinoethyl)-2-phenylquinazolin-4-amine], the EC50 [1, 4] is reported as 9.7 ± 0.5 µM, the “SI (CC50/EC50)” value [1] is reported as 5.8 and the CC50 at 3 days ([2]; MDBK cells) is reported as 55.9 ± 8.2 µM. The “MNCC (maximum non-cytotoxic concentration)” value [3] was 10.9 ± 1.4 µM.

In the case of c1ccc(-c2nc(NCc3cccnc3)c3ccccc3n2)cc1 [Compound 1.1], the EC50 [1] is reported as “Inactive^f” and the “MNCC (maximum non-cytotoxic concentration)” value [3] is reported as 12.0 ± 0.1 µM.

With Cc1ccc(CNc2nc(-c3ccccc3)nc3ccccc23)cc1 [Compound 1.2] the EC50 [1] was “Inactive” and the “MNCC (maximum non-cytotoxic concentration)” value [3] was 6.0 ± 0.2 µM.

For COc1ccc(Nc2nc(-c3ccccc3)nc3ccccc23)cc1 [Compound 1.3], the EC50 [1] was “Inactive” and the “MNCC (maximum non-cytotoxic concentration)” value [3] was 6.0 ± 0.2 µM.

In the case of c1ccc(CNc2nc(-c3ccccc3)nc3ccccc23)cc1 [Compound 1.4], the EC50 [1] is reported as “Inactive” and the “MNCC (maximum non-cytotoxic concentration)” value [3] is reported as 6.0 ± 0.3 µM.

For FC(F)(F)c1cccc(CNc2nc(-c3ccccc3)nc3ccccc23)c1 [Compound 1.5], the EC50 [1] was “Inactive” and the “MNCC (maximum non-cytotoxic concentration)” value [3] was 6.0 ± 0.1 µM.

In the case of CCCCCCNc1nc(-c2ccccc2)nc2ccccc12 [Compound 1.6, N-Hexyl-2-phenylquinazolin-4-amine], the EC50 [1] is reported as “Inactive” and the “MNCC (maximum non-cytotoxic concentration)” value [3] is reported as 12.0 ± 0.2 µM.

With CN(C)CCCNc1nc(-c2ccccc2)nc2ccccc12 [Compound 1.7, N^1,N^1-Dimethyl-N^3-(2-phenylquinazolin-4-yl)propane-1,3-diamine] the EC50 [1, 4] was 4.6 ± 1 µM, the “SI (CC50/EC50)” value [1] was 12.4 and the CC50 at 3 days ([2]; MDBK cells) was 57 ± 0.01 µM. For the same molecule, the “MNCC (maximum non-cytotoxic concentration)” value [3] was 18.6 ± 2.6 µM.

For CN1CCN(c2nc(-c3ccccc3)nc3ccccc23)CC1 [Compound 1.8, 4-(4-Methylpiperazin-1-yl)-2-phenylquinazoline], the EC50 [1, 4] was 1.4 ± 0.1 µM, the “SI (CC50/EC50)” value [1] was 48.6 and the CC50 at 3 days ([2]; MDBK cells) was 68 ± 8.4 µM. The “MNCC (maximum non-cytotoxic concentration)” value [3] was 19.8 ± 4.0 µM.

For c1ccc(-c2nc(NCCN3CCCCC3)c3ccccc3n2)cc1 [Compound 1.10, 2-Phenyl-N-[2-(Piperidin-1-yl)ethyl]quinazolin-4-amine], the EC50 [1, 4] was 1.4 ± 0.8 µM, the “SI (CC50/EC50)” value [1] was 14.0 and the CC50 at 3 days ([2]; MDBK cells) was 19.6 ± 6.3 µM. The “MNCC (maximum non-cytotoxic concentration)” value [3] was 6.4 ± 1.1 µM.

With c1ccc(CN2CCC(Nc3nc(-c4ccccc4)nc4ccccc34)CC2)cc1 [Compound 1.11, N-(1-Benzylpiperidin-4-yl)-2-phenylquinazolin-4-amine] the EC50 [1] was “Inactive”, the CC50 at 3 days ([2]; MDBK cells) was 22.2 ± 1.2 µM and the “MNCC (maximum non-cytotoxic concentration)” value [3] was 7.5 ± 0.1 µM.

For CC1(C)CC(Nc2nc(-c3ccccc3)nc3ccccc23)CC(C)(C)N1 [Compound 1.12, 2-Phenyl-N-(2,2,6,6-tetramethylpiperidin-4-yl)quinazolin-4-amine], the EC50 [1, 4] was 1.4 ± 0.3 µM, the “SI (CC50/EC50)” value [1] was 5.3 and the CC50 at 3 days ([2]; MDBK cells) was 7.4 ± 0.03 µM. The “MNCC (maximum non-cytotoxic concentration)” value [3] was 3.3 ± 0.7 µM.

In the case of [O-][n+]1ccc(CNc2nc(-c3ccccc3)nc3ccccc23)cc1 [Compound 1.13, 4-{[(2-Phenylquinazolin-4-yl)amino]methyl}pyridine 1-oxide], the EC50 [1] is reported as “Inactive” and the CC50 at 3 days ([2]; MDBK cells) is reported as over 100 µM.

In the case of CN1CCN(c2nc(-c3ccc([N+](=O)[O-])cc3)nc3ccccc23)CC1 [Compound 1.14, 4-(4-Methylpiperazin-1-yl)-2-(4-nitrophenyl)quinazoline], the EC50 [1] is reported as “Inactive”, the CC50 at 3 days ([2]; MDBK cells) is reported as 13 ± 3.4 µM and the “MNCC (maximum non-cytotoxic concentration)” value [3] is reported as 8.7 ± 1.6 µM.

With O=[N+]([O-])c1ccc(-c2nc(NCCN3CCCCC3)c3ccccc3n2)cc1 [Compound 1.15, 2-(4-Nitrophenyl)-N-[2-(piperidin-1-yl)ethyl]quinazolin-4-amine] the EC50 [1, 4] was 5.8 ± 0.6 µM, the “SI (CC50/EC50)” value [1] was 5.2 and the CC50 at 3 days ([2]; MDBK cells) was 30.2 ± 0.5 µM. The “MNCC (maximum non-cytotoxic concentration)” value [3] was 14.6 ± 3.1 µM.

With O=[N+]([O-])c1ccc(-c2nc(N3CCN(CCO)CC3)c3ccccc3n2)cc1 [Compound 1.16, 2-{4-[2-(4-Nitrophenyl)quinazolin-4-yl]piperazin-1-yl}ethanol] the EC50 [1] was “Inactive”, the CC50 at 3 days ([2]; MDBK cells) was 12 ± 2.1 µM and the “MNCC (maximum non-cytotoxic concentration)” value [3] was 5.9 ± 1.4 µM.

With OCCN1CCN(c2nc(-c3ccc(Cl)cc3Cl)nc3ccccc23)CC1 [Compound 1.17, 2-{4-[2-(2,4-Dichlorophenyl)quinazolin-4-yl]piperazin-1-yl}ethanol] the EC50 [1] was “Inactive”, the CC50 at 3 days ([2]; MDBK cells) was 31.5 ± 5.7 µM and the “MNCC (maximum non-cytotoxic concentration)” value [3] was 17.4 ± 3.0 µM.

For CN(C)c1ccc(-c2nc(N3CCN(CCO)CC3)c3ccccc3n2)cc1 [Compound 1.18, 2-(4-{2-[4-(N,N-Dimethylamino)phenyl]quinazolin-4-yl}piperazin-1-yl)ethanol], the EC50 [1, 4] was 3.5 ± 0.6 µM, the “SI (CC50/EC50)” value [1] was 17.4 and the CC50 at 3 days ([2]; MDBK cells) was 61 ± 2.5 µM. For the same molecule, the “MNCC (maximum non-cytotoxic concentration)” value [3] was 26.1 ± 1.2 µM.

With COc1ccc(-c2nc(N3CCN(C)CC3)c3ccccc3n2)cc1 [Compound 1.19, 2-(4-Methoxyphenyl)-4-(4-Methylpiperazin-1-yl)quinazoline] the EC50 [1, 4] was 12.8 ± 0.3 µM, the “SI (CC50/EC50)” value [1] was 2.9 and the CC50 at 3 days ([2]; MDBK cells) was 37.1 ± 0.2 µM. For the same molecule, the “MNCC (maximum non-cytotoxic concentration)” value [3] was 18.3 ± 0.3 µM.

With Cc1ccc(-c2nc(N3CCN(CCO)CC3)c3ccccc3n2)cc1 [Compound 1.20, 2-{4-[2-(p-Tolyl)quinazolin-4-yl]piperazin-1-yl}ethanol] the EC50 [1, 4] was 8.5 ± 3.4 µM, the “SI (CC50/EC50)” value [1] was 6.5 and the CC50 at 3 days ([2]; MDBK cells) was 55.4 ± 4 µM. The “MNCC (maximum non-cytotoxic concentration)” value [3] was 30.5 ± 2.1 µM.

In the case of Clc1ccc2c(NCCN3CCOCC3)ncnc2c1 [Compound 1.21, 7-Chloro-N-(2-Morpholinoethyl)quinazolin-4-amine], the EC50 [1, 4] is reported as 2.3 ± 0.5 µM, the “SI (CC50/EC50)” value [1] is reported as 25.8 and the CC50 at 3 days ([2]; MDBK cells) is reported as 59.3 ± 10.7 µM. The “MNCC (maximum non-cytotoxic concentration)” value [3] was 17.3 ± 5.2 µM.

OCCN1CCN(c2ncnc3cc(Cl)ccc23)CC1 [Compound 1.22, 2-[4-(7-Chloroquinazolin-4-yl)piperazin-1-yl]ethan-1-ol] showed an EC50 [1, 4] of 25.8 ± 1.2 µM and a CC50 at 3 days ([2]; MDBK cells) of over 100 µM.

For Clc1ccc2c(NCCN3CCCCC3)ncnc2c1 [Compound 1.23, 7-Chloro-N-[2-(Piperidin-1-yl)ethyl]quinazolin-4-amine], the EC50 [1, 4] was 4.1 ± 2.2 µM, the “SI (CC50/EC50)” value [1] was over 24.4 and the CC50 at 3 days ([2]; MDBK cells) was over 100 µM.

For CN1CCN(c2ncnc3cc(Cl)ccc23)CC1 [Compound 1.24, 7-Chloro-4-(4-Methylpiperazin-1-yl)quinazoline], the EC50 [1, 4] was 9.3 ± 2.1 µM, the “SI (CC50/EC50)” value [1] was over 10.8 and the CC50 at 3 days [2] was over 100 µM.
